Results reported in US20150183737A1, “COMPOSITIONS AND METHODS FOR SUBSTRATE-SELECTIVE INHIBITION OF ENDOCANNABINOID OXYGENATION” (Vanderbilt University, priority 2012, published 2015).
Entries after “also recorded” stand apart in the source; their conditions may differ.

Tests used:
[1] = test system: brain eCB, AA and PG levels; assay: Brain eCB, NAE, MAG, AA and PG levels after i.p. injection; type: in vivo, mice
[2] = test system: ICR mice; assay: Novel open field test; type: in vivo
Procedure: Animals were tested for open-field activity in a novel environment one hour after i.p. injection of compound as described in Sumislawski et al., 2011. Briefly, one-hour sessions were performed using automated experimental chambers (27.9 27.9 cm; MEDOFA-510; MED Associates, Ga., Vermont, United States of America) under constant illumination within a sound-attenuated room. Analysis of open field activity was performed using Activity Monitor v5.10 (MED Associates).

[3] = 10 mg/kg i.p. (Compound A: any dose tested), 2 hours
[4] = 2 hours after i.p administration, dose not stated

## COc1ccc2c(c1)c(CC(=O)N1CCOCC1)c(C)n2C(=O)c1ccc(Cl)cc1 [Compound A, 2-[1-(4-Chloro-benzoyl)-5-methoxy-2-methyl-1H-indol-3-yl]-1-morpholin-4-yl-ethanone]
[1]; 3 mg/kg i.p., 2 hours, male ICR mice
  Whole brain AEA levels: significantly increased
[1]; 10 mg/kg
  Brain 2-AG levels in wild type littermates of COX-2 knockout mice: significantly increased
  Brain 2-AG levels, meta-analysis of 12 cohorts: 109 % of vehicle
  Brain AA or PG levels in WT or COX-2^(−/−) mice: did not affect
  Brain AEA levels in wild type littermates of COX-2 knockout mice: significantly increased
  Brain AEA, meta-analysis of 12 cohorts: 139 % of vehicle
  Brain levels of MAGs other than 2-AG: did not affect
[1]; [3]
  Brain AA levels: did not significantly affect
  Brain PG levels: did not affect
[1]; 10 mg/kg i.p. (highest dose), 2 hours, vs vehicle
  Brain 2-AG levels: non-significant trend to increase; also recorded: significantly increased
[1]; 10 mg/kg i.p., 2 hours
  Brain levels of NAEs other than AEA: not any other NAE; also recorded: no other NAE
[1]; 10 mg/kg i.p., 2 hours, vs vehicle
  Brain AEA levels: significantly increased
[1]; [4]
  Brain 2-AG levels (Example 8): without affecting
  Brain AEA levels (Example 8): increased
[1]; combination treatment
  Brain 2-AG levels after JZL-184 treatment, compared to JZL-184 alone: additional significant increase
  Brain AEA levels when combined with PF-3845, compared to PF-3845 alone: significant additional increase
[1]; dose not stated
  Brain or lung PG levels (Example 8): did not affect
[1]; mouse, in vivo
  Brain AEA and 2-AG levels in CB1^(−/−) mice: significantly increased
  Brain PG levels in CB1^(−/−) mice: no effect; also recorded: without affecting
[1]; present in wild type littermates
  Ability to increase brain AEA levels in COX-2 knockout (KO) mice: absent
[1]; similar extent in both genotypes
  Brain AEA levels in WT and FAAH KO mice: increased
[2]; 10 mg/kg
  Center distance travelled and center time in the open-field arena: increased
[2]; Rimonabant 3 mg/kg
  Open field behavior in mice treated with Rimonabant: no significant behavioral effect
[2]; most pronounced during minutes 40-60
  Exploratory behavior and center time exploration in the open field (Example 8): dose-dependently increased
[2]; mouse, in vivo
  Open field behavior (center distance or time) in CB1^(−/−) mice: did not produce any behavioral effect; also recorded: did not increase
  Open field behavior in COX-2^(−/−) mice: did not produce any significant behavioral effects
  Open field behavior in vehicle-pretreated mice: exerting anxiolytic actions
  Open field behavior in wild type littermates of COX-2^(−/−) mice: normal anxiolytic-like response
[2]; open field data
  Hypolocomotion: did not cause hypolocomotion
